Source: patent US20170327598A1, “SINGLE DOMAIN ANTIBODIES DIRECTED AGAINST INTRACELLULAR ANTIGENS” (SINGH MOLECULAR MEDICINE, LLC, priority 2014, published 2017)
Values joined by “and” are separate entries in the source; they are usually repeats but may differ in a detail not shown here. Identical values can stand only once.

Key:
[1] = system: VEGF-A production in ARPE-19 cells; assay: VEGF-A ELISA in ARPE-19 retinal cells, Experiment 2;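 on all read-outs here: confluent ARPE-19 cells in 96-well plates, VEGF-A in culture supernatant quantified by ELISA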; assay type: cell-based, human; details: for Mean (pg VEGF-A per μg protein): mean of Wells 1-3; for Mean (pg VEGF-A per μg protein) / % Control: Experiment 2; for % Control: normalized for protein; for Mean Result (pg VEGF-A per mL) / pg VEGF-A per μg protein / Adj. Result (pg VEGF-A per mL): per well; for Adj. Result (pg VEGF-A per mL): adjusted for dilution; for Result (pg VEGF-A per mL): single reads; for pg VEGF-A per mL: based on collecting 0.1 ml of supernatant; for Mean (pg VEGF-A per mL): mean of Adj. Result, Wells 1-3
[2] = system: rabbit anti-llama biotinylated antibody or his-probe (H-3) biotin labeled antibody; assay: ELISA with sdAbs coated, binding of secondary antibodies (Experiments 2 and 3)
Description: Two assays (Experiment 2 and 3) were performed to assess the binding of the secondary antibody to the sdAbs. A similar ELISA method was utilized except the sdAbs were directly coated onto the assay plate at a concentration of 1 μg/mL. Plates were incubated overnight at 2-8° C. After the incubation, plates were washed (3×) and blocked (3% BSA in PBS) for at least one hour at room temperature.
After removal of the blocking buffer and washing (3×), the secondary antibodies, either rabbit anti-llama biotinylated antibody or his-probe (H-3) biotin labeled antibody at was then added at a 1:5,000 dilution to each well and incubated with shaking for at least one hour at room temperature. Only the rabbit anti-llama biotinylated antibody was used in Experiment 2. Both antibodies were run in parallel in Experiment 3.
After the incubation with secondary antibody, the plates were again washed (3×) and HRP at a 1:50,000 dilution was added to each well. Plates were incubated with shaking for at least one hour at room temperature. One last wash (3×) was performed followed by the addition of TMB substrate and plates were incubated at room temperature. For the anti-llama biotinylated antibody stop solution was added to halt the colorimetric reaction at 10 minutes. The his-probe (H-3) biotin labeled antibody was allowed to incubate for 20 minutes prior to stopping. The absorbance at 450 nm was measured as before.

[3] = system: human STAT3; assay: Biacore 3000 protein binding, STAT3 ligand immobilized (Example 22); details: sdAb as analyte
[4] = system: HT1080 cells; assay: Anti-proliferative effect, HT1080 cells; assay type: cell-based; details: for Absorbance ± S.E.: 72 hr
[5] = system: BT474 cells; assay: MTT proliferation assay, BT474; assay type: cell-based, human; details: BT474, 72 hours
[6] = system: GloResponse SIE-luc2P/HEK 293 cells; assay: BCA protein concentration of reporter cells run in parallel; assay type: cell-based; details: highest concentration

Anti-STAT3 VHH13: anti-STAT3 single domain antibody, SEQ ID NO:3; bacterially produced form referred to as SBT-100
Mean (pg VEGF-A per μg protein) ([1]; 10 μg/well, 12 Hr): 2.148 pg VEGF-A per μg protein
% Control ([1]; 10 μg/well, 12 Hr): 113.7%
Mean Result (pg VEGF-A per mL) ([1]; 10 μg/well, 12 Hr): 30.43 pg VEGF-A per mL and 24.41 pg VEGF-A per mL and 28.58 pg VEGF-A per mL
pg VEGF-A per μg protein ([1]; 10 μg/well, 12 Hr): 2.5 pg VEGF-A per μg protein and 1.9 pg VEGF-A per μg protein and 2 pg VEGF-A per μg protein
Adj. Result (pg VEGF-A per mL) ([1]; 10 μg/well, 12 Hr): 152.14 pg VEGF-A per mL and 122.07 pg VEGF-A per mL and 142.92 pg VEGF-A per mL
Result (pg VEGF-A per mL) ([1]; 10 μg/well, 12 Hr): 29.66 pg VEGF-A per mL and 31.2 pg VEGF-A per mL and 24.52 pg VEGF-A per mL and 24.31 pg VEGF-A per mL and 27.98 pg VEGF-A per mL and 29.18 pg VEGF-A per mL
% Negative Control ([1]; 10 μg/well, 24 Hr): 1142%
pg VEGF-A per mL ([1]; 10 μg/well, 24 Hr): 28 pg VEGF-A per mL and 34.8 pg VEGF-A per mL and 42.4 pg VEGF-A per mL
Mean (pg VEGF-A per mL) ([1]; 10 μg/well, 24 Hr): 350.7 pg VEGF-A per mL
Mean (pg VEGF-A per μg protein) ([1]; 10 μg/well, 24 Hr): 5.290 pg VEGF-A per μg protein
% Control ([1]; 10 μg/well, 24 Hr): 119.8%
Mean Result (pg VEGF-A per mL) ([1]; 10 μg/well, 24 Hr): 55.95 pg VEGF-A per mL and 69.61 pg VEGF-A per mL and 84.84 pg VEGF-A per mL
pg VEGF-A per μg protein ([1]; 10 μg/well, 24 Hr): 4.4 pg VEGF-A per μg protein and 5.4 pg VEGF-A per μg protein and 6.1 pg VEGF-A per μg protein
Adj. Result (pg VEGF-A per mL) ([1]; 10 μg/well, 24 Hr): 279.74 pg VEGF-A per mL and 348.06 pg VEGF-A per mL and 424.20 pg VEGF-A per mL
Result (pg VEGF-A per mL) ([1]; 10 μg/well, 24 Hr): 57.85 pg VEGF-A per mL and 54.04 pg VEGF-A per mL and 72.69 pg VEGF-A per mL and 66.53 pg VEGF-A per mL and 84.97 pg VEGF-A per mL and 84.71 pg VEGF-A per mL
% Negative Control ([1]; 10 μg/well, 48 Hr): 99.3%
pg VEGF-A per mL ([1]; 10 μg/well, 48 Hr): 83.7 pg VEGF-A per mL and 95.6 pg VEGF-A per mL and 98.3 pg VEGF-A per mL
Mean (pg VEGF-A per mL) ([1]; 10 μg/well, 48 Hr): 925.1 pg VEGF-A per mL
Mean (pg VEGF-A per μg protein) ([1]; 10 μg/well, 48 Hr): 13.696 pg VEGF-A per μg protein
% Control ([1]; 10 μg/well, 48 Hr): 104.6%
Mean Result (pg VEGF-A per mL) ([1]; 10 μg/well, 48 Hr): 191.17 pg VEGF-A per mL and 196.56 pg VEGF-A per mL and 167.34 pg VEGF-A per mL
pg VEGF-A per μg protein ([1]; 10 μg/well, 48 Hr): 11.8 pg VEGF-A per μg protein and 14 pg VEGF-A per μg protein and 15.3 pg VEGF-A per μg protein
Adj. Result (pg VEGF-A per mL) ([1]; 10 μg/well, 48 Hr): 955.85 pg VEGF-A per mL and 982.81 pg VEGF-A per mL and 836.69 pg VEGF-A per mL
Result (pg VEGF-A per mL) ([1]; 10 μg/well, 48 Hr): 194.18 pg VEGF-A per mL and 188.16 pg VEGF-A per mL and 194.77 pg VEGF-A per mL and 198.36 pg VEGF-A per mL and 158.85 pg VEGF-A per mL and 175.83 pg VEGF-A per mL
VEGF-A as % of control ([1]; 100 μg/mL, 12 hour treatment): 20.1%
VEGF-A as % of control ([1]; 100 μg/mL, 24 hour treatment): 7.5%
pg VEGF-A/m protein as % of the negative control ([1]; 100 μg/mL, 48 hours): 11%
% Negative Control ([1]; 100 μg/well, 12 Hr): 18.5%
pg VEGF-A per mL ([1]; 100 μg/well, 12 Hr): 2.4 pg VEGF-A per mL and 2.3 pg VEGF-A per mL
Mean (pg VEGF-A per mL) ([1]; 100 μg/well, 12 Hr): 23.8 pg VEGF-A per mL
Mean (pg VEGF-A per μg protein) ([1]; 100 μg/well, 12 Hr): 0.4 pg VEGF-A per μg protein
Mean Result (pg VEGF-A per mL) ([1]; 100 μg/well, 12 Hr): 4.86 pg VEGF-A per mL and 4.58 pg VEGF-A per mL
pg VEGF-A per μg protein ([1]; 100 μg/well, 12 Hr): 0.4 pg VEGF-A per μg protein
Adj. Result (pg VEGF-A per mL) ([1]; 100 μg/well, 12 Hr): 24.27 pg VEGF-A per mL and 22.91 pg VEGF-A per mL
Result (pg VEGF-A per mL) ([1]; 100 μg/well, 12 Hr): 5.09 pg VEGF-A per mL and 4.62 pg VEGF-A per mL and 5.3 pg VEGF-A per mL and 4.41 pg VEGF-A per mL and 4.83 pg VEGF-A per mL and 4.33 pg VEGF-A per mL
% Negative Control ([1]; 100 μg/well, 24 Hr): 6.3%
Mean (pg VEGF-A per mL) ([1]; 100 μg/well, 24 Hr): 19.2 pg VEGF-A per mL
Mean (pg VEGF-A per μg protein) ([1]; 100 μg/well, 24 Hr): 0.329 pg VEGF-A per μg protein
% Control ([1]; 100 μg/well, 24 Hr): 7.5%
pg VEGF-A per μg protein ([1]; 100 μg/well, 24 Hr): 0.5 pg VEGF-A per μg protein and 0.3 pg VEGF-A per μg protein
% Negative Control ([1]; 100 μg/well, 48 Hr): 3.7%
pg VEGF-A per mL ([1]; 100 μg/well, 48 Hr): 3.9 pg VEGF-A per mL
Mean (pg VEGF-A per mL) ([1]; 100 μg/well, 48 Hr): 35.6 pg VEGF-A per mL
Mean (pg VEGF-A per μg protein) ([1]; 100 μg/well, 48 Hr): 1.458 pg VEGF-A per μg protein
% Control ([1]; 100 μg/well, 48 Hr): 11.1%
Mean Result (pg VEGF-A per mL) ([1]; 100 μg/well, 48 Hr): 5.85 pg VEGF-A per mL and 7.78 pg VEGF-A per mL and 7.76 pg VEGF-A per mL
pg VEGF-A per μg protein ([1]; 100 μg/well, 48 Hr): 1.4 pg VEGF-A per μg protein and 1.6 pg VEGF-A per μg protein
Adj. Result (pg VEGF-A per mL) ([1]; 100 μg/well, 48 Hr): 29.23 pg VEGF-A per mL and 38.88 pg VEGF-A per mL and 38.78 pg VEGF-A per mL
Result (pg VEGF-A per mL) ([1]; 100 μg/well, 48 Hr): 8.03 pg VEGF-A per mL and 5.86 pg VEGF-A per mL and 5.83 pg VEGF-A per mL and 7.83 pg VEGF-A per mL and 7.72 pg VEGF-A per mL and 7.49 pg VEGF-A per mL
OD450 Values ([2]; His-probe (H-3), Experiment 3, stored 1:100 dilution of sdAb): 0.360
OD450 Values ([2]; Rabbit anti-Llama Secondary Antibody, Experiment 2, sdAb coated at 1 μg/mL): 1.313
OD450 Values ([2]; Rabbit anti-Llama Secondary Antibody, Experiment 3, stored 1:100 dilution of sdAb): 0.363
binding to STAT3 ligand [3]: bound
Absorbance ± S.E. ([4]; 25 μg/ml): 1.09 ± 0.01
Absorbance ± S.E. ([4]; 50 μg/ml): 0.42 ± 0.04
Absorbance ± S.E. ([4]; 100 μg/ml): 0.27 ± 0.01
Absorbance ± S.E. ([4]; 200 μg/ml): 0.22 ± 0.02
IC50 ([4]; HT1080 cells): 33 µg/mL
Mean Abs ([5]; 0.39 μg/ml): 0.322
Mean Abs ([5]; 3.13 μg/ml): 0.446
Mean Abs ([5]; 6.25 μg/ml): 0.469
Mean Abs ([5]; 25 μg/ml): 0.256
Mean Abs ([5]; 50 μg/ml): 0.145
Mean Abs ([5]; 100 μg/ml): 0.046
Mean Abs ([5]; 200 μg/ml): 0.040
decrease in protein [6]: approximately 2 fold
